Patent US6239171A, “Tocotrienols and tocotrienol-like compounds and methods for their use” (Lipogenics, Inc., priority 1998, dated 2001)

Key:
Type in all cases: in vivo
[1] = test system: cholesterol 7α-hydroxylase; assay: Hepatic cholesterol 7α-hydroxylase activity in hypercholesterolemic swine; conditions: control diet + 50 ppm
Description: (§1) All assays conducted on chicken or swine serum were done following the protocols described in A. A. Qureshi et al., "Lowering Of Serum Cholesterol In Hypercholesterolemic Humans By Tocotrienols" (Palmvitee), Am. J. Clin. Nutr., 53, pp. 1021S-26S (1991). All enzymatic assays were done following the protocols described in A. A. Qureshi et al., "Effects of Cereals and Culture Filtrate of Trichoderma viride on Lipid Metabolism of Swine", Lipids, 17, pp. 924 (1982). Plasma insulin, glucagon and TNF levels were measured using radioinnumoassay kits from Ventrex Laboratories, Inc. (Portland, Me.), ICN Biomedicals, Inc. (Costa Mesa, Calif.) and Genzyme Corp. (Cambridge, Mass.), respectively.
We next measured the effects of various tocotrienols from rice bran on HMG-CoA reductase and cholesterol 7α-hydroxylase in hypercholesterolemic swine. Since pigs are very similar to humans in their cholesterol metabolism, they provide a useful model from which to study hypercholesterolemia and related diseases. […] The serum cholesterol concentration in these swine is typically above 300-500 mg/dl, as compared to 120-160 mg/dl in normal adult swine. As a result, the pigs develop complicated atherosclerotic plaques that closely resemble advanced atherosclerotic lesions found in humans.
(§2) Each group of three 5-month old swine was administered either a control diet or a control diet supplemented with 50 ppm of TRF or 50 ppm of an individual tocotrienol. The samples were prepared as described in Example 11. After a 12 hour fast, serum and plasma samples were taken a 0 hrs, 21 days and 42 days from the start of the feeding period. After taking serum and plasma samples from the pigs at the end of the 42 day period, all of the swine were fasted for a total of 40 hours, followed by a 48 hour refeeding period. One swine from each group was sacrificed at that time and the liver, intestine, lung, heart, loin muscle, adipose tissue and ham muscle were removed.

[2] = test system: hypercholesterolemic swine; assay: Serum cholesterol, apolipoproteins, triglycerides, glucose, insulin and glucagon in hypercholesterolemic swine
Procedure: All assays conducted on chicken or swine serum were done following the protocols described in A. A. Qureshi et al., "Lowering Of Serum Cholesterol In Hypercholesterolemic Humans By Tocotrienols" (Palmvitee), Am. […] Plasma insulin, glucagon and TNF levels were measured using radioinnumoassay kits from Ventrex Laboratories, Inc. (Portland, Me.), ICN Biomedicals, Inc. (Costa Mesa, Calif.) and Genzyme Corp. (Cambridge, Mass.), respectively.
We next measured the effects of various tocotrienols from rice bran on HMG-CoA reductase and cholesterol 7α-hydroxylase in hypercholesterolemic swine. Since pigs are very similar to humans in their cholesterol metabolism, they provide a useful model from which to study hypercholesterolemia and related diseases. […] As a result, the pigs develop complicated atherosclerotic plaques that closely resemble advanced atherosclerotic lesions found in humans.
as §2, with “The samples were prepared as described in Example 11.” left out
The experimental conditions were the same, except that the two remaining swine in each group were transferred to the unsupplemented control diet following the 42 day feeding period. After an additional 70 days, serum and plasma samples were collected from these swine after a 12 hour fast for testing.

[3] = test system: hypercholesterolemic swine; assay: Plasma thromboxane B2 and platelet factor 4 in hypercholesterolemic swine; conditions: control diet + 50 ppm, 42 days
Description: as §1, §2
This example was conducted to measure the serum levels of apolipoprotein (a)1, apolipoprotein B, triglycerides, glucose, insulin and glucagon and the plasma levels of thromboxane B2 and platelet factor 4 in the swine described in Example 15.

[4] = 70 days on control diet after 42 days at 50 ppm

SMILES: CC(C)=CCC/C(C)=C/CC/C(C)=C/CCC1(C)CCc2cc(O)ccc2O1 (stereo not drawn) [P21, 3,4-dihydro-2-methyl-2-(4,8,12-trimethyltrideca-3' (E),7'(E),11'-trienyl)-2H-1-benzopyran-6-ol]
- CHOLESTEROL 7α-HYDROXYLASE, percentage of baseline value ([1]; 21 days): 99.34%
- Cholesterol 7α-hydroxylase ([1]; 21 days): 4.50 pg/min/mg of microsomes
- CHOLESTEROL 7α-HYDROXYLASE, Percentage of Control Activity ([1]; 42 days): 98.38%
- CHOLESTEROL 7α-HYDROXYLASE, percentage of baseline value ([1]; 42 days): 102.21%
- Cholesterol 7α-hydroxylase ([1]; 42 days): 4.63 pg/min/mg of microsomes
- HDL-CHOLESTEROL CONCENTRATION IN SERUM [2, 4]: 31.15 mg/100 ml
- HDL-CHOLESTEROL, Percentage of Control Activity [2, 4]: 103.50%
- HDL-CHOLESTEROL, percentage of baseline value [2, 4]: 135.72%
- HDL:LDL CHOLESTEROL, Percentage of Control Activity [2, 4]: 83.83%
- LDL-CHOLESTEROL CONCENTRATION IN SERUM [2, 4]: 227.82 mg/100 ml
- LDL-CHOLESTEROL, Percentage of Control Activity [2, 4]: 88.02%
- LDL-CHOLESTEROL, percentage of baseline value [2, 4]: 125.11%
- TOTAL CHOLESTEROL CONCENTRATION IN SERUM [2, 4]: 276.23 mg/100 ml
- TOTAL CHOLESTEROL, Percentage of Control Activity [2, 4]: 76.20%
- TOTAL CHOLESTEROL, percentage of baseline value [2, 4]: 125.39%
- Apo A1, percentage of control ([2]; control diet + 50 ppm, 6 weeks): 104.01%
- Apo A1 concentration in serum ([2]; control diet + 50 ppm, 6 weeks): 26.72 ± 1.14 mg/100 ml
- Apo B concentration in serum ([2]; control diet + 50 ppm, 6 weeks): 111.78 ± 1.80 mg/100 ml
- Apo B, percentage of control ([2]; control diet + 50 ppm, 6 weeks): 75.64%
- Triglycerides concentration in serum ([2]; control diet + 50 ppm, 6 weeks): 64.44 mg/100 ml
- Triglycerides, percentage of control ([2]; control diet + 50 ppm, 6 weeks): 84.17%
- HDL-CHOLESTEROL CONCENTRATION IN SERUM ([2]; control diet + 50 ppm, 21 days): 26.23 mg/100 ml
- HDL-CHOLESTEROL, percentage of baseline value ([2]; control diet + 50 ppm, 21 days): 114.29%
- HDL:LDL CHOLESTEROL, percentage of baseline value ([2]; control diet + 50 ppm, 21 days): 93.32%
- LDL-CHOLESTEROL CONCENTRATION IN SERUM ([2]; control diet + 50 ppm, 21 days): 194.17 mg/100 ml
- LDL-CHOLESTEROL, percentage of baseline value ([2]; control diet + 50 ppm, 21 days): 106.63%
- TOTAL CHOLESTEROL CONCENTRATION IN SERUM ([2]; control diet + 50 ppm, 21 days): 236.40 mg/100 ml
- TOTAL CHOLESTEROL, percentage of baseline value ([2]; control diet + 50 ppm, 21 days): 107.20%
- Glucagon ([2]; control diet + 50 ppm, 42 days): 278.36 pg/mL
- Glucagon, percentage of control ([2]; control diet + 50 ppm, 42 days): 84.25%
- Glucose ([2]; control diet + 50 ppm, 42 days): 72.63 mg/100 ml
- Glucose, percentage of control ([2]; control diet + 50 ppm, 42 days): 75.66%
- HDL-CHOLESTEROL CONCENTRATION IN SERUM ([2]; control diet + 50 ppm, 42 days): 30.74 mg/100 ml
- HDL-CHOLESTEROL, Percentage of Control Activity ([2]; control diet + 50 ppm, 42 days): 113.90%
- HDL-CHOLESTEROL, percentage of baseline value ([2]; control diet + 50 ppm, 42 days): 133.94%
- HDL:LDL CHOLESTEROL, Percentage of Control Activity ([2]; control diet + 50 ppm, 42 days): 57.82%
- HDL:LDL CHOLESTEROL, percentage of baseline value ([2]; control diet + 50 ppm, 42 days): 81.59%
- Insulin ([2]; control diet + 50 ppm, 42 days): 21.4 µU/mL
- Insulin, percentage of control ([2]; control diet + 50 ppm, 42 days): 104.63%
- LDL-CHOLESTEROL CONCENTRATION IN SERUM ([2]; control diet + 50 ppm, 42 days): 198.76 mg/100 ml
- LDL-CHOLESTEROL, Percentage of Control Activity ([2]; control diet + 50 ppm, 42 days): 66.53%
- LDL-CHOLESTEROL, percentage of baseline value ([2]; control diet + 50 ppm, 42 days): 109.15%
- TOTAL CHOLESTEROL CONCENTRATION IN SERUM ([2]; control diet + 50 ppm, 42 days): 238.17 mg/100 ml
- TOTAL CHOLESTEROL, Percentage of Control Activity ([2]; control diet + 50 ppm, 42 days): 68.90%
- TOTAL CHOLESTEROL, percentage of baseline value ([2]; control diet + 50 ppm, 42 days): 108.20%
- Platelet Factor 4, percentage of control [3]: 82.59%
- Thromboxane B2 [3]: 60.48 pg/100 ml
- Thromboxane B2, percentage of control [3]: 87.66%
